Results taken from US11457627B2, “Plant activator” (IBIDEN CO., LTD., priority 2017, dated 2022).

Tests used:
PDF1.2 gene = test: Evaluation of the resistance gene expression (real-time PCR), PDF1.2; type: in vivo, Arabidopsis thaliana; conditions: 0.012% in 0.15% potassium bicarbonate (FIG. 1) or 0.15% dipotassium hydrogenphosphate (FIG. 2) aqueous solution, watering of roots, RNA 24 hours after treatment
Description: (§1) As Example 1, 0.15% potassium bicarbonate aqueous solution containing 0.012% of 13-oxo-9,11-octadecadienoic acid was prepared. (9Z,11E)-13-oxo-9,11-octadecadienoic acid (13-oxoODA, Cayman Chemical Company, INC.) was used as a 13-oxo-9,11-octadecadienoic acid. […]
(§2) Each of the aqueous solutions obtained from Examples 1 and 2 was applied using the watering to treat only the roots (underground part) of Arabidopsis thaliana plants grown in the soil. The total RNA was isolated 24 hours after treatment from each Arabidopsis thaliana plant treated with each of the aqueous solutions and from the untreated Arabidopsis thaliana plant as a control, and the cDNA was synthesized from the isolated total RNA, and then the expression levels of resistance genes, PR1, PR2 and PDF1.2 were analyzed by real-time PCR. […]

[1] = system: resistance genes, PR1, PR2 and PDF1.2; test: Resistance-inducing effect (expression of resistance genes overall); type: in vivo, Arabidopsis thaliana; conditions: used instead of the oxo fatty acid
Description: As Example 1, 0.15% potassium bicarbonate aqueous solution containing 0.012% of 13-oxo-9,11-octadecadienoic acid was prepared. (9Z,11E)-13-oxo-9,11-octadecadienoic acid (13-oxoODA, Cayman Chemical Company, INC.) was used as a 13-oxo-9,11-octadecadienoic acid. As Comparative Examples, 0.15% potassium bicarbonate aqueous solution containing 0.012% of a fatty acid analog, which is selected from 13-HPODE ((9Z,11E)-13-hydroperoxy-9,11-octadecadienoic acid, Cayman Chemical Company, INC.), 9-HPODE ((10Z,12E)-9-hydroperoxy-10,12-octadecadienoic acid, Cayman Chemical Company, INC.), 9-HPOTE ((10E,12Z,15Z)-9-hydroperoxy-10,12,15-octadecatrienoic acid, Cayman Chemical Company, INC.), 9-HOTE ((10E,12Z,15Z)-9-hydroxy-10,12,15-octadecatrienoic acid, Cayman Chemical Company, INC.), 13-HPOTE ((9Z, 11E, 15Z)-13-hydroperoxy-9,11,15-octadecatrienoic acid, Cayman Chemical Company, INC.), 13-HOTE ((9Z, 11E, 15Z)-13-hydroxy-9,11,15-octadecatrienoic acid, Cayman Chemical Company, INC.) and 12-OPDA (12-oxo-phytodienoic acid, Cayman Chemical Company, INC.), and 0.15% potassium bicarbonate aqueous solution containing 0.012% of an α-ketol fatty acid were prepared. An aqueous solution of α-ketol fatty acid was prepared according to the preparation method described below.
As Example 2, 0.15% dipotassium hydrogenphosphate aqueous solution containing 0.012% of 13-oxo-9,11-octadecadienoic acid was prepared. (9Z,11E)-13-oxo-9,11-octadecadienoic acid (13-oxoODA, Cayman Chemical Company, INC.) was used as a 13-oxo-9,11-octadecadienoic acid. […]
as §2

PR2 gene = test: Evaluation of the resistance gene expression (real-time PCR), PR2; type: in vivo, Arabidopsis thaliana; conditions: 0.012% in 0.15% potassium bicarbonate (FIG. 1) or 0.15% dipotassium hydrogenphosphate (FIG. 2) aqueous solution, watering of roots, RNA 24 hours after treatment
Description: as §1, §2

PR1 gene = test: Evaluation of the resistance gene expression (real-time PCR), PR1; type: in vivo, Arabidopsis thaliana; conditions: 0.012% in 0.15% potassium bicarbonate (FIG. 1) or 0.15% dipotassium hydrogenphosphate (FIG. 2) aqueous solution, watering of roots, RNA 24 hours after treatment
Description: as §1, §2

[2] = molecular target: T1, PPARα (peroxisome proliferator-activated receptor α) (Homo sapiens, UniProt Q07869); conditions: known from prior art; cited from earlier work
T1 sequence (Q07869 1-468): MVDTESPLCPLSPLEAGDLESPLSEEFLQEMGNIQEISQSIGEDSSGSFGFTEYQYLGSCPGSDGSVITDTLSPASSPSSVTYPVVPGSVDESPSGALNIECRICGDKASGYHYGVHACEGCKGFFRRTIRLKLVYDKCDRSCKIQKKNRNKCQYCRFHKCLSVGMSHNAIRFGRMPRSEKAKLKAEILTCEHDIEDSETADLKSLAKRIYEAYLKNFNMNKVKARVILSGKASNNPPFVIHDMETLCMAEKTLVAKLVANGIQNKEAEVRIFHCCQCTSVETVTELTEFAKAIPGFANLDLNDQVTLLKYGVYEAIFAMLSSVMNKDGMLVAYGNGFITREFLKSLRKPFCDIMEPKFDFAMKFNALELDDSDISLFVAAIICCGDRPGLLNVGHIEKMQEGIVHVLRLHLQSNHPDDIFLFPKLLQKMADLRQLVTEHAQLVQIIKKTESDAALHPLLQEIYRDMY

Compound	resistance-inducing effect (effect on the expression of resistance-inducing traits) [1]	further results
CC/C=C\C[C@@H]1C(=O)C=C[C@@H]1CCCCCCCC(=O)O [12-OPDA, 12-oxo-phytodienoic acid]		expression level of resistance gene PDF1.2 (PDF1.2 gene): induced the expression
CC/C=C\CC(/C=C/C=C\CCCCCCCC(=O)O)OO (centres unmarked) [13-HPOTE, (9Z, 11E, 15Z)-13-hydroperoxy-9,11,15-octadecatrienoic acid]	does not provide any resistance-inducing effect	
CCCCCC(=O)/C=C/C=C\CCCCCCCC(=O)O [13-oxoODA, (9Z,11E)-13-oxo-9,11-octadecadienoic acid]		expression level of resistance gene PR2 (PR2 gene): significantly higher expressions; expression level of resistance gene PR1 (PR1 gene): significantly higher expressions; agonist activity to activate transcription factor PPARα [2]: strong agonist activity
hydroperoxy octadecatrienoic acid [HPOTE]	is not obtained	
hydroperoxyoctadecadienoic acid [HPODE]	is not obtained	
hydroxy octadecatrienoic acid [HOTE]	is not obtained	
